Results reported in US8680268B2, “Sulfonic acid derivative compound and novel naphthalic acid derivative compound” (Adeka Corporation, priority 2010, dated 2014).

Experiment: Measurement of UV absorption spectra of methanol solutions
Type: physicochemical
Details: 1×10^−5 mol/liter, 200 nm to 500 nm, (short wavelength)
Experimental: Solutions of the compounds listed in Table 2 among the compounds yielded in the above described examples and the comparative compounds 1-3 represented by the formulae described below in methanol with 1×10^−5 mol/liter were prepared to measure the UV absorption spectra of the solutions at 200 nm to 500 nm.

Row | Compound | Maximum absorption (nm), first absorption peak
1 | O=C1c2cccc3cccc(c23)C(=O)N1OS(=O)(=O)C(F)(F)F [Comparative compound 2] | 226 nm
2 | CCCCCCCCSc1ccc2c3c(cccc13)C(=O)N(OS(=O)(=O)CC13CCC(CC1=O)C3(C)C)C2=O (stereo not shown) [Compound S-29] | 210 nm
3 | CC1(C)C2CCC1(CS(=O)(=O)ON1C(=O)c3cccc4cccc(c34)C1=O)C(=O)C2 (stereo not shown) [compound 1] | 231 nm
4 | Cc1ccc(S(=O)(=O)ON2C(=O)c3cccc4cccc(c34)C2=O)cc1 [compound 3] | 229 nm

Same assay, conditions: 1×10^−5 mol/liter, 200 nm to 500 nm, long wavelength

Row | Compound | Maximum absorption (nm), second absorption peak
5 | O=C1c2cccc3cccc(c23)C(=O)N1OS(=O)(=O)C(F)(F)F [Comparative compound 2] | 336 nm
6 | CCCCCCCCSc1ccc2c3c(cccc13)C(=O)N(OS(=O)(=O)CC13CCC(CC1=O)C3(C)C)C2=O (stereo not shown) [Compound S-29] | 400 nm
7 | CC1(C)C2CCC1(CS(=O)(=O)ON1C(=O)c3cccc4cccc(c34)C1=O)C(=O)C2 (stereo not shown) [compound 1] | 335 nm
8 | Cc1ccc(S(=O)(=O)ON2C(=O)c3cccc4cccc(c34)C2=O)cc1 [compound 3] | 335 nm

Same assay, conditions: 1×10^−5 mol/liter, (short wavelength)

Row | Compound | Absorbance at first absorption peak
9 | O=C1c2cccc3cccc(c23)C(=O)N1OS(=O)(=O)C(F)(F)F [Comparative compound 2] | 0.389
10 | CCCCCCCCSc1ccc2c3c(cccc13)C(=O)N(OS(=O)(=O)CC13CCC(CC1=O)C3(C)C)C2=O (stereo not shown) [Compound S-29] | 0.299
11 | CC1(C)C2CCC1(CS(=O)(=O)ON1C(=O)c3cccc4cccc(c34)C1=O)C(=O)C2 (stereo not shown) [compound 1] | 0.413
12 | Cc1ccc(S(=O)(=O)ON2C(=O)c3cccc4cccc(c34)C2=O)cc1 [compound 3] | 0.513

Same assay, conditions: 1×10^−5 mol/liter, long wavelength

Row | Compound | Absorbance at second absorption peak
13 | O=C1c2cccc3cccc(c23)C(=O)N1OS(=O)(=O)C(F)(F)F [Comparative compound 2] | 0.103
14 | CCCCCCCCSc1ccc2c3c(cccc13)C(=O)N(OS(=O)(=O)CC13CCC(CC1=O)C3(C)C)C2=O (stereo not shown) [Compound S-29] | 0.158
15 | CC1(C)C2CCC1(CS(=O)(=O)ON1C(=O)c3cccc4cccc(c34)C1=O)C(=O)C2 (stereo not shown) [compound 1] | 0.133
16 | Cc1ccc(S(=O)(=O)ON2C(=O)c3cccc4cccc(c34)C2=O)cc1 [compound 3] | 0.117

Experiment: Evaluation of solubility in various organic solvents at 25° C.
Type: physicochemical
Details: concentration giving a stable solution
From the text: The case in which dissolution occurred at more than 20 mass % is indicated by 20<while the case of less than 0.5 mass % is indicated by 0.5>.

Row | Compound | Solubility in cyclohexanone | Solubility in propylene glycol monomethyl ether acetate | Solubility in γ-butyrolactone
17 | O=C1c2cccc3cccc(c23)C(=O)N1OS(=O)(=O)C(F)(F)F [Comparative compound 2] | 7.1 mass % | 1.9 mass % | 4.8 mass %
18 | CCCCSc1ccc2c3c(cccc13)C(=O)N(OS(=O)(=O)CC13CCC(CC1=O)C3(C)C)C2=O (stereo not shown) [Compound S-28] | 14.0 mass % | 2.8 mass % | 17.8 mass %
19 | CCCCCCCCSc1ccc2c3c(cccc13)C(=O)N(OS(=O)(=O)CC13CCC(CC1=O)C3(C)C)C2=O (stereo not shown) [Compound S-29] | > 20 mass % | 9.0 mass % | 20< mass %
20 | CC1(C)C2CCC1(CS(=O)(=O)ON1C(=O)c3cccc4cccc(c34)C1=O)C(=O)C2 (stereo not shown) [compound 1] | 6.1 mass % | 1.1 mass % | 12.6 mass %
21 | Cc1ccc(S(=O)(=O)ON2C(=O)c3cccc4cccc(c34)C2=O)cc1 [compound 3] | 1.0 mass % | < 0.5 mass % | 1.9 mass %
